What was measured:
OVCAR-3 [1] = assay: Growth inhibition of human OVCAR3 cells after 48 hrs by sulforhodamine B assay; type: functional; conditions: OVCAR-3, 48 h
T47D = assay: Cytotoxicity against human T47D cells after 48 hrs by sulforhodamine B assay; type: cell-based
HL-60(TB) = assay: Growth inhibition of human HL-60(TB) cells after 48 hrs by sulforhodamine B assay; type: functional; conditions: HL-60, 48 h
A549 = assay: Cytotoxicity against human A549 cells after 48 hrs by sulforhodamine B assay; type: cell-based; conditions: a549, 48 h
BT-549 [2] = assay: Growth inhibition of human BT549 cells after 48 hrs by sulforhodamine B assay; type: functional; conditions: BT-549, 48 h
[3] = target: Casein kinase I isoform delta (Homo sapiens) (UniProt P48730); assay: Binding affinity to human CSNK1D at 10 uM incubated for 1 hr by kinase binding assay relative to untreated control
HOP-62 = assay: Cytotoxicity against human HOP62 cells after 48 hrs by sulforhodamine B assay; type: cell-based; conditions: hop-62, 48 h
Hs-578T [4] = assay: Cytotoxicity against human Hs578T cells after 48 hrs by sulforhodamine B assay; type: cell-based
COLO 205 = assay: Cytotoxicity against human COLO205 cells after 48 hrs by sulforhodamine B assay; type: cell-based; conditions: colo 205, 48 h
[5] = target: T1, Receptor-interacting serine/threonine-protein kinase 1 (Homo sapiens) (UniProt Q13546); assay: Binding affinity to human RIPK1 at 10 uM incubated for 1 hr by kinase binding assay relative to untreated control
T1 sequence (whole entry): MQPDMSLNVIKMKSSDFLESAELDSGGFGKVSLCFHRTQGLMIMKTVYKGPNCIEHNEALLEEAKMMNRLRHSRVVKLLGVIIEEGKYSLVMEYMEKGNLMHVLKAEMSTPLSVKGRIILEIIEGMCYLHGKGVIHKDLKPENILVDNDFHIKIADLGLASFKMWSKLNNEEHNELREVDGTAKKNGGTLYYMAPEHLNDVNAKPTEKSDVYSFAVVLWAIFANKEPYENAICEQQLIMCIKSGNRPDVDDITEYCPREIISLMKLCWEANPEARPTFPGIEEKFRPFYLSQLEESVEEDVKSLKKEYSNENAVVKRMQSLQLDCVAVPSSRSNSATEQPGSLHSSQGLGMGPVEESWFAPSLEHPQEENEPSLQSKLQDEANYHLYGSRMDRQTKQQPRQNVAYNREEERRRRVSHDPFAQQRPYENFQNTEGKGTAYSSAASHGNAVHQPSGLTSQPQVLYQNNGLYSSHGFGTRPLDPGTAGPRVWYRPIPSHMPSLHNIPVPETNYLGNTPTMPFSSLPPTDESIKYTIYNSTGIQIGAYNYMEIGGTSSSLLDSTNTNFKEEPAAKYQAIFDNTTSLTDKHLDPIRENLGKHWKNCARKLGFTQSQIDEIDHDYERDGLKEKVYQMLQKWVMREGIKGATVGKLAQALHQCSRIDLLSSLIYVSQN

CAKI-1 = assay: Growth inhibition of human Caki1 cells after 48 hrs by sulforhodamine B assay; type: functional; conditions: CAKI-1, 48 h
OVCAR-3 [6] = assay: Cytotoxicity against human OVCAR3 cells after 48 hrs by sulforhodamine B assay; type: cell-based; conditions: ovcar-3, 48 h
MDA-MB-435 = assay: Growth inhibition of human MDA-MB-435 cells after 48 hrs by sulforhodamine B assay; type: functional; conditions: MDA-MB-435, 48 h
[7] = target: Cyclin-dependent kinase 8 (Homo sapiens) (UniProt P49336); assay: Binding affinity to human CDK8 at 10 uM incubated for 1 hr by kinase binding assay relative to untreated control
MCF7 = assay: Growth inhibition of human MCF7 cells after 48 hrs by sulforhodamine B assay; type: functional; conditions: MCF7, 48 h
M14 = assay: Growth inhibition of human M14 cells after 48 hrs by sulforhodamine B assay; type: functional; conditions: M14, 48 h
CCRF-CEM = assay: Cytotoxicity against human CCRF-CEM cells after 48 hrs by sulforhodamine B assay; type: cell-based
[8] = target: Casein kinase I isoform epsilon (Homo sapiens) (UniProt P49674); assay: Binding affinity to human CSNK1E at 10 uM incubated for 1 hr by kinase binding assay relative to untreated control
Malme-3M = assay: Growth inhibition of human MALME-3M cells after 48 hrs by sulforhodamine B assay; type: functional
SF-268 = assay: Growth inhibition of human SF268 cells after 48 hrs by sulforhodamine B assay; type: functional; conditions: SF-268, 48 h
EKVX = assay: Growth inhibition of human EKVX cells after 48 hrs by sulforhodamine B assay; type: functional
DU-145 = assay: Growth inhibition of human DU145 cells after 48 hrs by sulforhodamine B assay; type: functional; conditions: DU-145, 48 h
HCT-15 = assay: Growth inhibition of human HCT15 cells after 48 hrs by sulforhodamine B assay; type: functional; conditions: HCT-15, 48 h
TK-10 = assay: Growth inhibition of human TK10 cells after 48 hrs by sulforhodamine B assay; type: functional; conditions: TK-10, 48 h
HOP-92 = assay: Growth inhibition of human HOP92 cells after 48 hrs by sulforhodamine B assay; type: functional; conditions: HOP-92, 48 h
UACC-257 [9] = assay: Cytotoxicity against human UACC257 cells after 48 hrs by sulforhodamine B assay; type: cell-based; conditions: uacc-257, 48 h
BT-549 [10] = assay: Cytotoxicity against human BT549 cells after 48 hrs by sulforhodamine B assay; type: cell-based; conditions: bt-549, 48 h
UO-31 = assay: Growth inhibition of human UO31 cells after 48 hrs by sulforhodamine B assay; type: functional; conditions: UO-31, 48 h
NCI-H23 = assay: Growth inhibition of human NCI-H23 cells after 48 hrs by sulforhodamine B assay; type: functional; conditions: NCI-H23, 48 h
IGROV-1 = assay: Growth inhibition of human IGROV1 cells after 48 hrs by sulforhodamine B assay; type: functional; conditions: IGROV-1, 48 h
UACC-257 [11] = assay: Growth inhibition of human UACC257 cells after 48 hrs by sulforhodamine B assay; type: functional; conditions: UACC-257, 48 h
[12] = system: Mast/stem cell growth factor receptor Kit (Homo sapiens), P10721 [V560G]; assay: Inhibition of human KIT V560G using gamma-33P-ATP as substrate assessed as enzyme functional activity at 1 uM by scintillation counting relative to untreated control; parameters: scale not given: the % may be the effect or the level left
SF-295 = assay: Cytotoxicity against human SF295 cells after 48 hrs by sulforhodamine B assay; type: cell-based; conditions: sf-295, 48 h
[13] = system: Mast/stem cell growth factor receptor Kit (Homo sapiens), P10721 [L576P]; assay: Binding affinity to human KIT L576P mutant at 10 uM incubated for 1 hr by kinase binding assay relative to untreated control
Hs-578T [14] = assay: Growth inhibition of human Hs578T cells after 48 hrs by sulforhodamine B assay; type: functional
[15] = target: Platelet-derived growth factor receptor alpha (Homo sapiens) (UniProt P16234); assay: Binding affinity to human PDGFRA at 10 uM incubated for 1 hr by kinase binding assay relative to untreated control
[16] = target: Mast/stem cell growth factor receptor Kit (Homo sapiens) (UniProt P10721); assay: Inhibition of human KIT using gamma-33P-ATP as substrate assessed as enzyme functional activity at 1 uM by scintillation counting relative to untreated control; parameters: scale not given: the % may be the effect or the level left
Chain of Mast/stem cell growth factor receptor Kit (Homo sapiens) (P10721 whole entry): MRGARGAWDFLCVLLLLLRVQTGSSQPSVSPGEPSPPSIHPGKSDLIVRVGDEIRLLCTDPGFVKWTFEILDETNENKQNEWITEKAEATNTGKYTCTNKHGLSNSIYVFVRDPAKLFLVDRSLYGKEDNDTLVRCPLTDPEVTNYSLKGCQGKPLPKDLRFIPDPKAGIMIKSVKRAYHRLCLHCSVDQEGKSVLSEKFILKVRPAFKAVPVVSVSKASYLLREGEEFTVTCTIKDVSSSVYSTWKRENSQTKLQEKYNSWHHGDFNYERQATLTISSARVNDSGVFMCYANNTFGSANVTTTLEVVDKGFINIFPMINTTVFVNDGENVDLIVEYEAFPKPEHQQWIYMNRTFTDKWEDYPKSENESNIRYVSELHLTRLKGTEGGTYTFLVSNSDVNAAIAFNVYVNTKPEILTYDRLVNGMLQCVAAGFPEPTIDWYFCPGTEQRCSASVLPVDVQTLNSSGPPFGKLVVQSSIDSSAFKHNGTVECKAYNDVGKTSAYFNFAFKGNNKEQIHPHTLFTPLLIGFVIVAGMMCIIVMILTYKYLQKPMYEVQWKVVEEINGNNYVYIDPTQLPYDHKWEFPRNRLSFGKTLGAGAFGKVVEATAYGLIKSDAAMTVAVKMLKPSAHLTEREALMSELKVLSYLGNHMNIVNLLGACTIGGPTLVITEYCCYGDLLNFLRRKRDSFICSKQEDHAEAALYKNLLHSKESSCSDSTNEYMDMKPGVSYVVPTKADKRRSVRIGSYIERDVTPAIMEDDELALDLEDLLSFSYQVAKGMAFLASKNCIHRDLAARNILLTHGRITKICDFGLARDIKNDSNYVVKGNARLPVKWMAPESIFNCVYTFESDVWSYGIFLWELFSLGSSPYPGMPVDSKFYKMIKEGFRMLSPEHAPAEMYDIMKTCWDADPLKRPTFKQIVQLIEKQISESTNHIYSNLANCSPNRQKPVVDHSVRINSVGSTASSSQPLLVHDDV

Chain of Casein kinase I isoform delta (Homo sapiens) (P48730 whole entry, looked up, canonical isoform): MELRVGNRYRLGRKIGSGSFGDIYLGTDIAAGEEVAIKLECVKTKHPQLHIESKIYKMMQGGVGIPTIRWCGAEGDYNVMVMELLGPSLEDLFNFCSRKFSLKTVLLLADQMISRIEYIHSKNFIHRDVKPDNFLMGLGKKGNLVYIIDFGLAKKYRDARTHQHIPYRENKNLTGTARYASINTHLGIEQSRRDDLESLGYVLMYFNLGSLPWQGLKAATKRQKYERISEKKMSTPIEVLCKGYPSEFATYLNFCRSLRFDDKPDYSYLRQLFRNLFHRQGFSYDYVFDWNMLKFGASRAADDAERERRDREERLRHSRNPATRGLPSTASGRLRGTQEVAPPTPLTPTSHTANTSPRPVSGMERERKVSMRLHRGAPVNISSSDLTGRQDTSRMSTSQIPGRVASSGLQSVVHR
Chain of Cyclin-dependent kinase 8 (Homo sapiens) (P49336 whole entry): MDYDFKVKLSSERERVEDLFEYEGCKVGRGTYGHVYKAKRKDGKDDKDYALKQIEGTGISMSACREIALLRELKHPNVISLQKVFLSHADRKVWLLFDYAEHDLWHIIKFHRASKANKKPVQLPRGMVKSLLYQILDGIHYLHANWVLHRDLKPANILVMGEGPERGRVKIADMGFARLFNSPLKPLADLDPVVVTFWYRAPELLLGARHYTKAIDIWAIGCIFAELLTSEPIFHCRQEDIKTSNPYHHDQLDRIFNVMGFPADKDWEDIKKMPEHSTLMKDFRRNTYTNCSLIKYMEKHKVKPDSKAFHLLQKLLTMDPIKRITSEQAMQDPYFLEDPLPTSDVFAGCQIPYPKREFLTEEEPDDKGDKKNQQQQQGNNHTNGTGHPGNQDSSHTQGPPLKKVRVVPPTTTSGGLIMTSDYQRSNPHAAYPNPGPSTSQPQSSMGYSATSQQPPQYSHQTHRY
Chain of Casein kinase I isoform epsilon (Homo sapiens) (P49674 whole entry, looked up, canonical isoform): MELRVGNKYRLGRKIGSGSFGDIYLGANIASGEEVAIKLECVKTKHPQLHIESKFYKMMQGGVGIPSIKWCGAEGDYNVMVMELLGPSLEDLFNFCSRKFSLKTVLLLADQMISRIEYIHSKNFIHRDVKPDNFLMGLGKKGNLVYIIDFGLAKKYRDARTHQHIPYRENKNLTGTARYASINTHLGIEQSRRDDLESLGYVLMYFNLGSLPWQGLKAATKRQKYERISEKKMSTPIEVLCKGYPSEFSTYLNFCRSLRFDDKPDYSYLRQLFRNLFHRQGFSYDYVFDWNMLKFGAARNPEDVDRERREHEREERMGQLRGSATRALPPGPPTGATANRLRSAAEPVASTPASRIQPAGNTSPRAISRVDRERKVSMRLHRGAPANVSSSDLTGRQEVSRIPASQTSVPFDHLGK
Chain of Platelet-derived growth factor receptor alpha (Homo sapiens) (P16234 whole entry): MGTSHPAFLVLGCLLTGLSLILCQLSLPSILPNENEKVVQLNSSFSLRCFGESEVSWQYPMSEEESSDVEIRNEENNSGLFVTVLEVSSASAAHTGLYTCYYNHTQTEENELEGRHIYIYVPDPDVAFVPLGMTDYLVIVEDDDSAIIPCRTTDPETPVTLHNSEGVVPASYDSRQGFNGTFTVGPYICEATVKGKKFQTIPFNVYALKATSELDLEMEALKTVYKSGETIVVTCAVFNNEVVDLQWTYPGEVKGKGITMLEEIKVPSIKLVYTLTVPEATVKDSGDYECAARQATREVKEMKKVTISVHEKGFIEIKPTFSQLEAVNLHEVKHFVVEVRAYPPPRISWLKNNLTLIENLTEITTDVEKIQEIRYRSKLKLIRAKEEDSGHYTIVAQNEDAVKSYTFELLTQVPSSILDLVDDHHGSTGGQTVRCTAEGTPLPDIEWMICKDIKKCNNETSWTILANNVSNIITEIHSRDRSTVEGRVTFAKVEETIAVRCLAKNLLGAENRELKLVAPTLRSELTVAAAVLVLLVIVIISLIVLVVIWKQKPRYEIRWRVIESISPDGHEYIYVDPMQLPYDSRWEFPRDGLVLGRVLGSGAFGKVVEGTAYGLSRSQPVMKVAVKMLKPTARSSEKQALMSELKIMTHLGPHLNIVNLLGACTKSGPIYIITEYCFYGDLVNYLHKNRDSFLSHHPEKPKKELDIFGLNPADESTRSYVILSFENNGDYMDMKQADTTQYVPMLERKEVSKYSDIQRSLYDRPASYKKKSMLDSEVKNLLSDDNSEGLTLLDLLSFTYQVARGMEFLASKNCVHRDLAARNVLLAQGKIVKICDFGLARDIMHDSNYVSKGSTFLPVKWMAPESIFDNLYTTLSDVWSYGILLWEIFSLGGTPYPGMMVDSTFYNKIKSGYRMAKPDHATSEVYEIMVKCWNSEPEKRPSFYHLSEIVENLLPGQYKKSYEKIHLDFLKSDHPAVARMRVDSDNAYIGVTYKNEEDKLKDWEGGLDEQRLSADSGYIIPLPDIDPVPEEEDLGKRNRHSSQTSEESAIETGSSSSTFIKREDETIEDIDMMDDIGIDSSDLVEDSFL
Chain of Mast/stem cell growth factor receptor Kit (Homo sapiens), P10721 [V560G] (P10721 whole entry V560G): as the sequence (P10721 whole entry) above, with V560G counted along it
Chain of Mast/stem cell growth factor receptor Kit (Homo sapiens), P10721 [L576P] (P10721 whole entry L576P): as the sequence (P10721 whole entry) above, with L576P counted along it

SMILES	TGI (OVCAR-3 [1])	LC50 (T47D)	TGI (HL-60(TB))	LC50 (A549)	TGI (BT-549 [2])	Activity [3]	LC50 (HOP-62)	LC50 (Hs-578T [4])	LC50 (COLO 205)	Activity [5]	LC50 (OVCAR-3 [6])	TGI (MDA-MB-435)	Activity [7]	Activity [8]	TGI (SF-268)	TGI (DU-145)	TGI (HCT-15)	TGI (TK-10)	LC50 (UACC-257 [9])	LC50 (BT-549 [10])	further results
c1ccc(Cc2cnc(N3CCN(c4ncnc5ccccc45)CC3)nc2)cc1	23.2 µM	> 100 µM	41.8 µM	> 100 µM	18.4 µM	26%	> 100 µM	> 100 µM	> 100 µM	3.5%	48.2 µM	27.5 µM	3.4%	45%	57.2 µM	30.7 µM	63.2 µM	60.8 µM	41.4 µM	43 µM	TGI (CAKI-1): 39.3 µM; TGI (MCF7): 58.2 µM; TGI (M14): 26.3 µM; LC50 (CCRF-CEM): > 100 µM; TGI (Malme-3M): 33.6 µM; TGI (EKVX): 33.1 µM; TGI (HOP-92): 24.2 µM; TGI (UO-31): 38.4 µM; TGI (NCI-H23): 30.8 µM; TGI (IGROV-1): 63.3 µM
CCc1cnc(N2CCN(C(=O)c3ccc(CNc4ncnc5ccccc45)cc3)CC2)nc1	> 100 µM	> 100 µM	38.6 µM	> 100 µM	–	23%	> 100 µM	> 100 µM	> 100 µM	> 50%	> 100 µM	> 100 µM	> 50%	29%	100 µM	> 100 µM	> 100 µM	> 100 µM	> 100 µM	> 100 µM	TGI (UACC-257 [11]): 26.8 µM; Activity [12]: 99%; LC50 (SF-295): > 100 µM; Activity [13]: > 50%; TGI (Hs-578T [14]): > 100 µM; Activity [15]: > 50%; TGI (CAKI-1): 94.8 µM; TGI (MCF7): 72.8 µM; TGI (M14): 32.7 µM; LC50 (CCRF-CEM): > 100 µM; Activity [16]: 100%; TGI (Malme-3M): 42.2 µM; TGI (HOP-92): 80.1 µM; TGI (UO-31): 60.5 µM; TGI (IGROV-1): 49.8 µM
O=C(c1cccc(Nc2ncnc3ccccc23)c1)N1CCN(c2ncc(Cc3ccccc3)cn2)CC1	8.13 µM	5.62 µM	–	8.13 µM	1.74 µM	22%	7.41 µM	> 100 µM	5.5 µM	19%	> 100 µM	2.14 µM	> 50%	23%	> 100 µM	6.46 µM	3.55 µM	6.17 µM	5.37 µM	5.37 µM	TGI (UACC-257 [11]): 2.63 µM; Activity [12]: 86%; LC50 (SF-295): > 100 µM; Activity [13]: > 50%; TGI (Hs-578T [14]): 7.41 µM; Activity [15]: > 50%; Activity [16]: 100%; TGI (EKVX): 4.9 µM; TGI (NCI-H23): 2.69 µM
